Laboratory results reported in US7049309B2, “3-Thia-4-arylquinolin-2-one potassium channel modulators” (Bristol-Myers Squibb Company, priority 2003, dated 2006).

Key:
[1] = test system: cloned mammalian (mSlo or hSlo) BK channels heterologously expressed in Xenopus oocytes; assay: Assay for BK channel openers: two-electrode voltage clamp of BK-mediated outward current in Xenopus oocytes; assay type: cell-based; settings: percent increase over BK current in controls, voltage step to +140 mV, IBTX-sensitive current
Protocol: The ability of the compounds of the invention to open BK channels and increase whole-cell outward (K^+) BK-mediated currents was assessed under voltage-clamp conditions by determining their ability to increase cloned mammalian (mSlo or hSlo) BK-mediated outward current heterologously expressed in Xenopus oocytes [Butler, A., et al., Science 1993, 261, 221–224; Dworetzky, S. I., et al., Mol. Brain Res. 1994, 27, 189–193; Gribkoff, V. K., et al., Mol. Pharmacol. 1996, 50, 206–217]. The two BK constructs employed represent nearly structurally identical homologous proteins, and have proven to be pharmacologically indistinguishable in our tests. To isolate BK current from native (background, non-BK) current, the specific and potent BK channel-blocking toxin iberiotoxin (IBTX) [Galvez, A., et al., J. Biol. Chem. 1990, 265, 11083–11090] was employed at a supramaximal concentration, e.g., 50–100 nanomolar (“nM”). The relative contribution of BK channel-mediated current to total outward current was determined by subtraction of the current remaining in the presence of IBTX (non-BK current) from the current profiles obtained in all other experimental conditions (control, drug, and wash) [Gribkoff, V. K. et al., Mol. Pharmacol. 1996, 50, 206–217]. […] All compounds were tested in 5–10 oocytes and are reported at the indicated concentration of 20 micromolar (“μM”) (or as otherwise indicated); the effect of the selected compounds of the invention on BK current was expressed as the percent of control IBTX-sensitive current at a single transmembrane voltage (+140 mV) and is listed in Table 1. Recordings were accomplished using standard two-electrode voltage clamp techniques [Stuhmer, W., et al., Methods in Enzymology, 1992, 207, 319–339]; voltage-clamp protocols consisted of 500–750 milliseconds (“ms”) duration step depolarizations, from a holding potential of −60 mV, to a final voltage up to +140 mV in 20 mV steps. The experimental media (modified Barth's solution) consisted of millimolar (“mM”): NaCl (88), NaHCO3 (2.4), KCl (1.0), HEPES (10), MgSO4 (0.82), Ca(NO3)2 (0.33), CaCl2 (0.41); pH 7.5.

[2] = test system: rat small intestine (ileum) segments; assay: Rat small intestine (ileum) strip relaxation (nifedipine-sensitive force); parameters: species or system rat (Sprague Dawley); settings: integral of nifedipine-sensitive force pre- and 30 min post-compound; compound concentration not given
Text: The ability of the compounds of the invention to relax rat small intestine tissue as a model for the treatment of irritable bowel syndrome is described as follows. Male rats (Harlan, Sprague Dawley, 250–350 g) were sacrificed by decapitation. A portion of small intestine (ileum) was removed and the attached connective tissues and intestinal contents removed. The ileum was cut into segments of ≧1 cm in length. The segments were mounted longitudinally between fixed hooks in organ baths containing warm (37° C.) physiological salt solution (composition in mM: NaCl 118.4, KCl 4.7, KH2PO4 1.2, MgSO4 1.2, CaCl2 1.8, Glucose 10.1, NaHCO3 25; gassed with 95% O2/5% CO2, pH 7.4). A stable tension of ˜1.5 g was maintained in the tissue segments during the equilibration period of 45 minutes. Changes in muscle tension were measured with isometric force transducers (Grass, FT-03C) and recorded using AcqKnowledge data acquisition system (AcqKnowledge for MP100WS, Biopac Systems Inc., Goleta, Calif.). Compound or vehicle was added in the baths for 30 minutes. “Zero” active force was established at the end of the experiment using nifedipine (20 μM). The effects of compounds or vehicle on force was determined by measuring the integral of nifedipine-sensitive force (including resting tone and spontaneous contractions) pre- and 30 min post-compound (or vehicle) addition. Results are expressed as the percentage inhibition of force. DMSO vehicle inhibited force (integral) by −0.6±3.0% (n=25).

CN(C)CCCN(C)CC(O)CSc1c(-c2cc(Cl)ccc2O)c2cc(C(F)(F)F)ccc2[nH]c1=O (stereo not shown) [Example 87, 4-(5-Chloro-2-hydroxyphenyl)-3-[[3-[[3-(dimethylamino)propyl]methylamino]-2-hydroxypropyl]thio]-6-(trifluoromethyl)-2(1H)-quinolinone]
% MaxiK opening ([1]; at 20 μM): 214%

O=c1[nH]c2ccc(C(F)(F)F)cc2c(-c2cc(Cl)ccc2O)c1SCC(O)CN1CCSCC1 (stereo not shown) [Example 85, 4-(5-Chloro-2-hydroxyphenyl)-3-[[2-hydroxy-3-(4-thiomorpholinyl)propyl]thio]-6-(trifluoromethyl)-2(1H)-quinolinone]
% MaxiK opening ([1]; at 20 μM): 319% | % inhibition of force (RSI strips) [2]: 40%

CN(C)CCN1CCN(CC(O)CSc2c(-c3cc(Cl)ccc3O)c3cc(C(F)(F)F)ccc3[nH]c2=O)CC1 (stereo not shown) [Example 86, 4-(5-Chloro-2-hydroxyphenyl)-3-[[3-[4-[2-(dimethylamino)ethyl]-1-piperazinyl]-2-hydroxypropyl]thio]-6-(trifluoromethyl)-2(1H)-quinolinone]
% MaxiK opening ([1]; at 20 μM): 124%

COc1ccc(Cl)cc1-c1c(SCC(O)CN2CCN(c3ncccn3)CC2)c(=O)[nH]c2ccc(C(F)(F)F)cc12 (stereo not shown) [Example 92, 4-(5-Chloro-2-methoxyphenyl)-3-[[2-hydroxy-3-[4-(2-pyrimidinyl)-1-piperazinyl]propyl]thio]-6-(trifluoromethyl)-2(1H)-quinolinone]
% MaxiK opening ([1]; at 1 μM): 85^⋄ %

COc1ccc(Cl)cc1-c1c(SCC(O)CN2CCC(C)CC2)c(=O)[nH]c2ccc(C(F)(F)F)cc12 (stereo not shown) [Example 107, 4-(5-Chloro-2-methoxyphenyl)-3-[[2-hydroxy-3-(4-methyl-1-piperidinyl)propyl]thio]-6-(trifluoromethyl)-2(1H)-quinolinone]
% MaxiK opening ([1]; at 20 μM): 115%

CN1CCN(CCC(O)CSc2c(-c3cc(Cl)ccc3O)c3cc(C(F)(F)F)ccc3[nH]c2=O)CC1 (stereo not shown) [Example 4, 4-(5-Chloro-2-hydroxyphenyl)-3-[[2-hydroxy-4-(4-methyl-1-piperazinyl)butyl]thio]-6-(trifluoromethyl)-2(1H)-quinolinone]
% MaxiK opening ([1]; at 20 μM): 515%

COc1ccc(Cl)cc1-c1c(SCC(O)CN2CCN(CCO)CC2)c(=O)[nH]c2ccc(C(F)(F)F)cc12 (stereo not shown) [Example 79, 4-(5-Chloro-2-methoxyphenyl)-3-[[2-hydroxy-3-[4-(2-hydroxyethyl)-1-piperazinyl]propyl]thio]-6-(trifluoromethyl)-2(1H)-quinolinone]
% MaxiK opening ([1]; at 20 μM): 150% | % inhibition of force (RSI strips) [2]: 10%

COc1ccc(Cl)cc1-c1c(SCC(O)CN2CCN(C(C)=O)CC2)c(=O)[nH]c2ccc(C(F)(F)F)cc12 (stereo not drawn) [Example 97, 4-Acetyl-alpha-[[[4-(5-chloro-2-methoxyphenyl)-1,2-dihydro-2-oxo-6-(trifluoromethyl)-3-quinolinyl]thio]methyl]-1-piperazineethanol]
% MaxiK opening ([1]; at 20 μM): 192%

COc1ccc(Cl)cc1-c1c(SCC(O)CN2CCN(C)CC2)c(=O)[nH]c2ccc(C(F)(F)F)cc12 (stereo not shown) [Example 102, 4-(5-Chloro-2-methoxyphenyl)-3-[[2-hydroxy-3-(4-methyl-1-piperazinyl)propyl]thio]-6-(trifluoromethyl)-2(1H)-quinolinone]
% MaxiK opening ([1]; at 20 μM): 163%

O=c1[nH]c2ccc(C(F)(F)F)cc2c(-c2cc(Cl)ccc2O)c1SCC(O)CN1CCCC1 (stereo not shown) [Example 81, 4-(5-Chloro-2-hydroxyphenyl)-3-[[2-hydroxy-3-(1-pyrrolidinyl)propyl]thio]-6-(trifluoromethyl)-2(1H)-quinolinone]
% MaxiK opening ([1]; at 20 μM): 192%

COc1ccc(Cl)cc1-c1c(SCC(O)CN2CCC(O)C2)c(=O)[nH]c2ccc(C(F)(F)F)cc12 (stereo not shown) [Example 91, 4-(5-Chloro-2-methoxyphenyl)-3-[[2-hydroxy-3-(3-hydroxy-1-pyrrolidinyl)propyl]thio]-6-(trifluoromethyl)-2(1H)-quinolinone]
% MaxiK opening ([1]; at 20 μM): 125%

COc1ccc(Cl)cc1-c1c(SCC(O)CN2CCSCC2)c(=O)[nH]c2ccc(C(F)(F)F)cc12 (stereo not shown) [Example 90, 4-(5-Chloro-2-methoxyphenyl)-3-[[2-hydroxy-3-(4-thiomorpholinyl)propyl]thio]-6-(trifluoromethyl)-2(1H)-quinolinone]
% MaxiK opening ([1]; at 20 μM): 97%

CCN(CC)CC(O)CSc1c(-c2cc(Cl)ccc2O)c2cc(C(F)(F)F)ccc2[nH]c1=O (stereo not shown) [Example 74, 4-(5-Chloro-2-hydroxyphenyl)-3-[[3-(diethylamino)-2-hydroxypropyl]thio]-6-(trifluoromethyl)-2(1H)-quinolinone]
% MaxiK opening ([1]; at 20 μM): 192% | % inhibition of force (RSI strips) [2]: 46%

O=c1[nH]c2ccc(C(F)(F)F)cc2c(-c2cc(Cl)ccc2O)c1SCC(O)CN1CCN(CCO)CC1 (stereo not shown) [Example 84, 4-(5-Chloro-2-hydroxyphenyl)-3-[[2-hydroxy-3-[4-(2-hydroxyethyl)-1-piperazinyl]propyl]thio]-6-(trifluoromethyl)-2(1H)-quinolinone]
% MaxiK opening ([1]; at 20 μM): 287% | % inhibition of force (RSI strips) [2]: 55%

O=c1[nH]c2ccc(C(F)(F)F)cc2c(-c2cc(Cl)ccc2O)c1SCC(O)CN1CCOCC1 (stereo not shown) [Example 82, 4-(5-Chloro-2-hydroxyphenyl)-3-[[2-hydroxy-3-(4-morpholinyl)propyl]thio]-6-(trifluoromethyl)-2(1H)-quinolinone]
% MaxiK opening ([1]; at 20 μM): 292%
